{
  "source": "patent US8293786B2",
  "about": "(Alltranz Inc., priority 2007, dated 2012)",
  "key": {"human abdominal skin": {"tested_on": "human abdominal skin", "assay": "In vitro human skin permeation and skin disposition, flow-through diffusion cells (Example 1)", "type": "in vitro ADME", "method": "Flow through diffusion cells were used for the permeation studies. HEPES-buffered Hanks' balanced salts containing 40% (polyethylene glycol) PEG 400 with gentamicin was used for the receiver compartment. Donor solution was comprised of either 100% propylene glycol (PG) solution or a rubbed in gel formulation. […] Drug accumulation in the skin after a 24 or 36 h diffusion experiment was determined as μmol/g wet tissue weight.\nThe skin samples used in the following experiments were obtained from abdominal reduction surgery and dermatomed to a thickness of approximately 200 μm. The skin samples used herein were frozen at −20° C. for less than six months.\n1 L of receiver fluid was prepared by measuring 1 L of nanopure water into a graduated cylinder. 90% of the water was added to an Erlenmeyer flask. Hanks' salts (1 bottle) were added to the water along with 5.96 g of HEPES and 0.35 g of sodium bicarbonate. The pH of the solution was adjusted with 1 N sodium hydroxide solution to pH 7.4. The remaining water was added and the receiver fluid was filtered through a 0.2μ filter (Millipore, Billerica, Mass.). 50 mg of gentamicin was added to the filtered receiver fluid and 400 mL of the receiver fluid was removed and replaced with 400 mL of PEG 400.\nTwo different formulations were used for charging the donor compartment. Drugs were made up in either 100% PG or a gel formulation. For the PG solution, approximately 50-120 mg of the appropriate drug was weighed into a glass silanized culture tube. The gel formulation resulted from the mixing of absolute ethanol, nanopure water, IPM, Carbopol® 980, 0.1 N aqueous sodium hydroxide solution and the respective drug.\nDermatomed skin harvested from abdominoplasty, stored at −20° C., was used for the experiments. A PermeGear flow-through (In-Line, Riegelsville, Pa.) diffusion cell system was used for the skin permeation studies.\nDiffusion cells were kept at 32° C. with a circulating water bath. Human epidermal skin was arranged in the diffusion cell with stratum corneum (upper layer of skin) facing the donor compartment. Permeation area of the skin was 0.95 cm^2. Data was collected from a human skin donor with three to four diffusion cells per treatment.\nReceiver solution was HEPES-buffered Hanks' balanced salts with gentamicin containing 40% PEG 400 at a pH of 7.4 and flow rate was adjusted to 0.8 mL/h. Each cell was charged with 0.050 mL of the respective drug formulation (donor solution) or with 0.035 mL of gel formulation which was rubbed into the skin for 15 sec with a Teflon coated rod. The formulation was applied to ensure complete coverage. Diffusion cells were covered with a cap for the duration of the study.\nSamples were collected into scintillation vials in 3 h increments for either 24 h or 36 h. All the samples were stored at 4° C. until extracted. An aliquot (0.5 mL) of the diffusion sample was placed into a silanized HPLC vial and 0.5 mL of acetonitrile was added to the sample, capped and vortexed.\nAt the end of the experiment, the skin tissue was removed from the diffusion cell, rinsed with nanopure water, and blotted dry with a paper towel. The skin was tape stripped twice using book tape (Scotch™, 3M, St. Paul, Minn.) to remove drug formulation adhering to the tissue surface. The area of skin in contact with the drug was cut out, chopped up and placed in a pre-weighed scintillation vial. Ten mL of acetonitrile was added to the vial and drug was extracted from the skin by shaking at room temperature overnight. The following day a 0.1 mL aliquot was removed and diluted with an additional 0.9 mL of acetonitrile. The diluted sample was added to the silanized HPLC vial for analysis.\nAt the end of the experiment, a 0.01 mL aliquot of the PG donor solution was removed and added to a scintillation vial containing 10 mL of acetonitrile. The vials were vortexed and then sonicated for 15 min. An aliquot of 1 mL was removed and transferred into a silanized HPLC vial for analysis."}, "[1]": {"assay": "Plasma stability of cannabidiol prodrugs (bioconversion to parent drug)", "type": "in vitro ADME", "conditions": "Table 20, di-prodrug in plasma; for % mono-prodrug at time (h): mono-prodrug formed", "method": "An approximated 1 mg/mL stock solution of each prodrug was prepared in 100 μL of ethanol and 900 μL of acetonitrile. Ten (10) μL of stock was spiked into 1 mL of plasma and vortexed. The samples were kept sealed in an amber vial and samples were obtained to analyze for bioconversion to parent drug."}, "[2]": {"conditions": "Table 3, in propylene glycol, prodrug applied"}},
  "data": [
    {"smiles": "C=C(C)[C@@H]1CCC(C)=C[C@H]1c1c(OC(=O)CCN(C)C)cc(CCCCC)cc1OC(=O)CCN(C)C", "note": "[ALL00101, CBD bis(3-(dimethylamino)propionate)]", "values": [
      {"measurement": "flux enhancement (in words)", "setting": "human abdominal skin; Example 1", "value": "No flux enhancement"},
      {"measurement": "form in which the prodrug permeated through the human skin", "setting": "human abdominal skin; Example 1", "value": "permeated through the human skin as cannabidiol"},
      {"measurement": "found in the skin disposition (tissue) samples", "setting": "human abdominal skin; Example 1", "value": "Both cannabidiol and intact prodrug were found"},
      {"measurement": "intact prodrug in the diffusion samples (receiver samples)", "setting": "human abdominal skin; Example 1", "value": "No intact prodrug was found"},
      {"measurement": "total cannabidiol in the skin compared to cannabidiol", "setting": "human abdominal skin; Example 1", "value": "higher"},
      {"measurement": "24 h cumulative amt", "setting": "human abdominal skin; [2]", "value": "11.0 ± 0.1", "unit": "nmol"},
      {"measurement": "Flux", "setting": "human abdominal skin; [2]", "value": "1.0 ± 0.4", "unit": "nmol/cm^2/h"},
      {"measurement": "Lag time", "setting": "human abdominal skin; [2]", "value": "11.7 ± 5.1", "unit": "h"},
      {"measurement": "24 h skin conc", "setting": "human abdominal skin; Table 3, in propylene glycol, prodrug applied, found in skin as CBD", "value": "17.4 ± 4.3 (CBD) μmol/g"},
      {"measurement": "24 h skin conc", "setting": "human abdominal skin; Table 3, in propylene glycol, prodrug applied, found in skin as PD (prodrug)", "value": "29.2 ± 7.6 (PD) μmol/g"},
      {"measurement": "% mono-prodrug at time (h)", "setting": "[1]; 1 h", "value": 22, "unit": "%"},
      {"measurement": "% mono-prodrug at time (h)", "setting": "[1]; 20 h", "value": 11, "unit": "%"},
      {"measurement": "% Di-prodrug at time (h)", "setting": "[1]; 0 h", "value": 100, "unit": "%"},
      {"measurement": "% Di-prodrug at time (h)", "setting": "[1]; 1 h", "value": 75, "unit": "%"},
      {"measurement": "% Di-prodrug at time (h)", "setting": "[1]; 20 h", "value": 1, "unit": "%"}
    ]}
  ]
}
